Here are results for 2 compounds from US9526785B2, “Pharmaceuticals for oral delivery” (Enteris BioPharma, Inc., priority 2013, dated 2016).

Structures are written as SMILES. Several values for one entry are separate records, joined by “and”; a condition that tells them apart may be missing. Identical values can stand only once. Like-named read-outs stand apart in the source and are kept apart here.

A short description of series [1]: Kanamycin and tobramycin plasma PK after IV bolus in dogs. It counts as in vivo, Beagle dogs. Here is the method: (§1) Adult Beagle dogs weighing approximately 10 to 15 kg were used in the study. The animals were housed at Sinclair Research Center, Columbia, Mo. either individually or in pairs in over-sized dog runs. […] A 12-hour light/12-hour dark photoperiod was maintained. Room temperature was set to be maintained at 20±5° C. Relative humidity was monitored but not controlled. Animal room and pen cleaning were performed according to the testing facility (Sinclair) SOPs.
(§2) Animals were fasted overnight prior to drug administration and throughout the blood collection period.
(§3) Adult female Beagle dogs, weighing 9-15 kg were used in the oral and IV studies. Dogs were fasted overnight before the beginning of each study but were allowed free access to water. On the day of the study, one pre-dose blood sample of 3 mL was collected from each animal.
(§4) After administration of the drug, 3 mL blood samples were collected from the brachial vein at various time-points up to 240 minutes (4 hours) post-administration. Blood samples were collected into new heparinized monovette sampling syringes. The samples were placed on ice before being centrifuged for 10 minutes at approximately 2750 rpm at 2-8° C. Each tube was labeled with the dog ID # and time-point, and they were stored at −20° C. pending shipment.
Plasma samples were diluted appropriately with the kit assay buffer.
The maximum plasma concentration (Cmax) values and their times of occurrence (Tmax) were obtained directly from the plasma concentration vs. time profiles. The areas under the plasma concentration-time curves (AUClast) were estimated by the linear trapezoidal rule from time zero to the time of the last observed plasma concentration.

Another series in a line: in vivo. The conditions noted are these: female, beagle, dog, po. Here is the method: as §1, §2, §3, §4
Plasma samples were diluted appropriately with the kit assay buffer. […]

The mark [2] stands for this setting: female, beagle, dog, in vivo, iv, 0.1 mg.

Usually AUC stands for the area under the concentration-time curve, a measure of exposure. The term Cmax denotes the highest concentration seen after dosing. In general, Tmax refers to the time at which the peak concentration occurs. A word on the bioavailability: it is dose-corrected exposure relative to a reference, in per cent. Read a low bioavailability as poor availability.

`NC[C@H]1O[C@H](O[C@H]2[C@H](O)[C@@H](O[C@H]3O[C@H](CO)[C@@H](O)[C@H](N)[C@H]3O)[C@H](N)C[C@@H]2N)[C@H](O)[C@@H](O)[C@@H]1O` [Kanamycin]: the concentration at 0 min in series [1] (female, Beagle, dog, plasma, iv, 0.1 mg, single IV bolus 0.10 mg, 0 min, read-out: Plasma Concentration, Mean) is 0 ng/mL; in series [1] (female, Beagle, dog, plasma, iv, 0.1 mg, single IV bolus 0.10 mg, 0 min, read-out: Plasma Concentration, individual dogs) it was 0 ng/mL. Besides, the concentration at 5 min in series [1] (female, Beagle, dog, plasma, iv, 0.1 mg, single IV bolus 0.10 mg, 5 min) is 40.8 ng/mL. The same compound gave a concentration at 10 min in series [1] (female, Beagle, dog, plasma, iv, 0.1 mg, single IV bolus 0.10 mg, 10 min) of 38.6 ng/mL. The concentration at 15 min in series [1] (female, Beagle, dog, plasma, iv, 0.1 mg, single IV bolus 0.10 mg, 15 min) turned out to be 40.3 ng/mL. In series [1] (female, Beagle, dog, plasma, iv, 0.1 mg, single IV bolus 0.10 mg, 20 min), the concentration at 20 min is 32.1 ng/mL. For the same compound, the concentration at 30 min in series [1] (female, Beagle, dog, plasma, iv, 0.1 mg, single IV bolus 0.10 mg, 30 min) was determined as 34.6 ng/mL. For the same compound, the concentration at 40 min stood at 27.2 ng/mL in series [1] (female, Beagle, dog, plasma, iv, 0.1 mg, single IV bolus 0.10 mg, 40 min, read-out: Plasma Concentration, Mean) and 29.9 ng/mL in series [1] (female, Beagle, dog, plasma, iv, 0.1 mg, single IV bolus 0.10 mg, 40 min, read-out: Plasma Concentration, individual dogs). In addition, the concentration at 60 min came out at 25.6 ng/mL in series [1] (female, Beagle, dog, plasma, iv, 0.1 mg, single IV bolus 0.10 mg, 60 min, read-out: Plasma Concentration, Mean) and 31 ng/mL in series [1] (female, Beagle, dog, plasma, iv, 0.1 mg, single IV bolus 0.10 mg, 60 min, read-out: Plasma Concentration, individual dogs). Moreover, the concentration at 90 min in series [1] (female, Beagle, dog, plasma, iv, 0.1 mg, single IV bolus 0.10 mg, 90 min) is 9.24 ng/mL. For the same compound, the concentration at 120 min in series [1] (female, Beagle, dog, plasma, iv, 0.1 mg, single IV bolus 0.10 mg, 120 min) worked out at 10 ng/mL. The compound further showed a concentration at 240 min in series [1] (female, Beagle, dog, plasma, iv, 0.1 mg, single IV bolus 0.10 mg, 240 min) of 1.61 ng/mL. The AUC in series [1] (female, Beagle, dog, plasma, iv, 0.1 mg, single IV bolus 0.10 mg, read-out: AUC, Mean (converted)) is 54.2 ng·h/mL; in series [1] (female, Beagle, dog, plasma, iv, 0.1 mg, single IV bolus 0.10 mg, read-out: AUC, individual dogs (converted)) it was 46.5 ng·h/mL. Further, the Cmax in series [1] (female, Beagle, dog, plasma, iv, 0.1 mg, single IV bolus 0.10 mg, read-out: Cmax, Mean) is 50 ng/mL. Further, the “AUC, individual dogs” value in series [1] (single IV bolus 0.10 mg) was 3806 ng·min/mL and 3169 ng·min/mL. For the same compound, in series [1] (single IV bolus 0.10 mg), the “Cmax, Mean” value is recorded as 50.21 ng/mL. Moreover, the “Cmax, individual dogs” value in series [1] (single IV bolus 0.10 mg) is 77.73 ng/mL and 54.88 ng/mL and 18.01 ng/mL. Moreover, the “Tmax, individual dogs” value in series [1] (single IV bolus 0.10 mg) is 15 min and 60 min. For the same compound, the “Plasma Concentration, individual dogs” value is 0 ng/mL in series [1] (single IV bolus 0.10 mg, 0 min); 77.73 ng/mL and 40.56 ng/mL and 3.97 ng/mL in series [1] (single IV bolus 0.10 mg, 5 min); 37.75 ng/mL and 7.52 ng/mL in series [1] (single IV bolus 0.10 mg, 10 min); 9.70 ng/mL in series [1] (single IV bolus 0.10 mg, 15 min); 39.87 ng/mL and 14.59 ng/mL in series [1] (single IV bolus 0.10 mg, 20 min); 43.81 ng/mL and 42.52 ng/mL and 17.48 ng/mL in series [1] (single IV bolus 0.10 mg, 30 min). Further, the “Plasma Concentration, individual dogs” value in series [1] (single IV bolus 0.10 mg, 40 min) is 34.08 ng/mL and 17.58 ng/mL; in series [1] (single IV bolus 0.10 mg, 60 min), 27.79 ng/mL and 18.01 ng/mL; in series [1] (single IV bolus 0.10 mg, 90 min), 0 ng/mL and 9.81 ng/mL and 17.91 ng/mL; in series [1] (single IV bolus 0.10 mg, 120 min), 0 ng/mL and 13.36 ng/mL and 16.63 ng/mL; in series [1] (single IV bolus 0.10 mg, 240 min), 0 ng/mL (2×) and 4.84 ng/mL.
On to `NC[C@H]1O[C@H](O[C@H]2[C@H](O)[C@@H](O[C@H]3O[C@H](CO)[C@@H](O)[C@H](N)[C@H]3O)[C@H](N)C[C@@H]2N)[C@H](N)C[C@@H]1O` [Tobramycin], for which the exposure (AUC) in series [1] (female, Beagle, dog, in vivo, iv, 0.1 mg, AUC, Mean) is 29.7 ng·h/mL. Further, the Cmax amounted to 38.4 ng/mL in series [1] (female, Beagle, dog, in vivo, iv, 0.1 mg, Cmax, individual dogs) and 31 ng/mL in series [1] (female, beagle, dog, in vivo, iv, 0.1 mg, Cmax, Mean). The Tmax was 5 min in series [1] (female, Beagle, dog, in vivo, iv, 0.1 mg, individual dogs) and 5 min in series [1] (female, beagle, dog, in vivo, iv, 0.1 mg, Mean). Further, the “Cmax, Mean” value in series [1] (setting [2]) is 31.22 ng/mL. In addition, the “Tmax, individual dogs” value in series [1] (setting [2]) was 5 min. For the same compound, the bioavailability in the series “in vivo” is 15%.
